# Square brackets hold non-standard residues; d marks the D form. Peptide text beside a SMILES is read from it. NMeF = CN[C@@H](Cc1ccccc1)C(=O)O
# What was measured:
# [1] = system: movement activity of mice; assay: Movement activity, open field experiment; format: in vivo, mouse; conditions: subcutaneous 10 mg/kg
# Protocol: The movement activity of the mice was tested by open field experiments. The experimental device is consisted of a 50×50×50 cm topless black plexiglass box and a movement monitoring system. The experiment was carried out in a soundproof environment with an indoor temperature being controlled at 22±1° C. After the experiment was started, the mice were first recorded for free movement within 30 minutes, and then compound 9 or morphine was administered subcutaneously, the movement of the mice was detected for another 150 minutes. Before the experiment for each mouse was started, the whole box was wiped with alcohol as a whole to exclude the residual odor of the previous mouse from affecting the accuracy of the data.
# (§1) The experimental data were expressed as mean±standard error (Means±S.E.M.), and the data for differences between groups treated with different drugs were analyzed by one-way ANOVA (Bonferroni test in one-way ANOVA) for statistics and analysis, ***P<0.001 represents that there was a significant difference between the movement activity of the drug-treated group and that of the saline group.
# body temperature of mice = assay: Body temperature of mice (rectal temperature); format: in vivo; conditions: mouse, intrathecal; doses 100, 300, 500 pmol
# Protocol: Mice were fixed in the manner described in Rosow et al. (1980). The ambient temperature was controlled at 21±0.5° C. and the experiment was carried out between 10 am and 2 pm. A temperature sensor attached to the biofunctional test BL-420F system was inserted into the rectum of the mouse in a depth of 2.5 cm to record the rectal temperature. The body temperatures before the intrathecal administration and at 10, 20, 30, 40, 50 and 60 minutes after administration were recorded.
# The experiment results of regulation on the mouse body temperature were expressed as the difference between the basal body temperature and the body temperature after administration. The relevant data were expressed as mean+standard error (Means±S.E.M.). Differences between groups treated with different drug concentrations were analyzed by one-way ANOVA (Bonfenoni test in one-way ANOVA) for data statistics and analysis.
# [2] = system: postoperative pain in mice; assay: Postoperative pain model (electronic Von Frey); format: in vivo, mouse; conditions: mechanical pain threshold
# Text: The postoperative pain in mice was detected mainly by an electronic Von Frey tenderness instrument. The basic pain threshold of normal mice was first determined, and then the mice were anesthetized with isoflurane. With the back facing up, the right hind paw of the mouse was fixed and disinfected with iodine solution. A 5 mm longitudinal incision was made with a No. 11 blade at 2 mm from the ankle to expose the plantaris, blood vessels and fascia, and the wound was sutured using a 4-0 surgical suture and a small suture needle, and the wound is coated with erythromycin ointment. The mechanical pain sensitivity value of the surgical foot of the mice was measured 6 h after the surgery, and then compound 9 was intrathecally or intraperitoneally given, and the mechanical pain threshold at different time points after administration were recorded.
# as §1, with “drug concentrations” for “drugs”, “MPE value” for “movement activity”
# First, the maximum analgesic effect (MPE) was calculated, MPF. […]
# [3] = system: inflammatory pain in mice; assay: Inflammatory pain model (Carrageenan or CFA); format: in vivo, mouse
# Protocol: Inflammatory pain in mice was measured using a hot stinging apparatus and an electronic Von Frey tenderness instrument, and the basal pain threshold of normal mice was firstly determined. Then 20 μl of 2% Carrageenan solution or CFA solution was injected subcutaneously into the mouse paw. The thermal and mechanical pain sensitivity value values of the injected paw in mice were tested after 24 hours (Carrageenan) or 4 days (CFA), and then compound 9 was administered into lateral ventricle, intrathecally or subcutaneously, and the pain threshold at different time points after administration were recorded.
# as §1, with “drug concentrations” for “drugs”, “pain threshold value” for “movement activity”
structure (smiles),measurement,setting,value
"C[C@@H](NC(=O)[C@@H](N)Cc1ccc(O)cc1)C(=O)NCC(=O)N(C)[C@@H](Cc1ccccc1)C(=O)NCC(=O)N1CCC[C@H]1C(=O)N[C@@H](CCC(N)=O)C(=O)N[C@@H](CCCNC(=N)N)C(=O)N[C@@H](Cc1ccccc1)C(N)=O [Compound 9, Tyr-D-Ala-Gly-NMe-Phe-Gly-Pro-Gln-Arg-Phe-NH2] (H-Y[dA]G[NMeF]GPQRF-NH2)",total distance of movement,[1],71.39 m
same,dose producing a significant effect of lowering body temperature,body temperature of mice,500 pmol
same,ED50 value of analgesia for postoperative pain,[2]; intraperitoneal,26.15 (22.62-30.23) mg/kg
same,ED50 value of analgesia for postoperative pain,[2]; intrathecal,8.63 (6.70-11.11) pmol
same,"analgesic ED50 value, inflammatory pain",[3]; intrathecal (FIG. 15: carrageenan-induced),2.98 (2.50-3.54) pmol
same,"analgesic ED50 value, inflammatory pain",[3]; lateral ventricle (FIG. 14: CFA-induced),5.20 (2.06-13.10) pmol
same,"analgesic ED50 value, inflammatory pain",[3]; subcutaneous (FIG. 16: carrageenan-induced),3.24 (2.81-3.74) mg/kg
